Source: US20260207637A1, “MODULATOR FOR PROMOTING BINDING OF BUTYROPHILIN 3A1/2A1” (priority 2023, published 2026)

Tests used:
MIApaca/FG2 cells [1] = assay: EC50 assay of small molecule activated γδ T cells to kill MIApaca/FG2 tumor cells (3-fold dilution protocol); assay type: cell-based; settings: Homo sapiens, MIA PaCa-2, γδT cells + MIApaca/FG2, E:T=2:1, co-culture 20 hours, 0.05-100 nM, read-out: MIApaca killing (EC50)
Description: γδT cells and MIApaca/FG2 tumor cell lines were expanded and cultured in vitro. MIApaca/FG2 cells were digested, and the cells were counted and resuspended in DMEM complete medium, the density of the cell suspension was adjusted and added into a 96-well plate at 5×10^3 cells/100 […]/well for overnight incubation. On the next day, the test compound and the control compound were diluted at a 3-fold ratio with DMSO, and 4 μL of the diluted compound was added to 96 μL of culture medium for 25-fold dilution. 5 μL of 25-fold diluted compound was transferred to the corresponding well which had been plated with tumor cells, and the actual detection concentration was in the range of 0.05-100 nM. γδT cells were resuspended in γδT complete medium, and the density of the cell suspension was adjusted according to the effector-target ratio of E:T=2:1, and then the cell was added to the corresponding well at 1×10^4 cells/100 μL/well. After co-culture at 37° C., 5% CO2 for 20 hours, the cells were centrifuged. The supernatant was removed, and 50 μL of cell lysate containing fluorescein substrate was added to each well. After standing for 18 minutes in the dark, the signal of chemiluminescence was detected. The EC50 value was calculated by four-parameter fitting, with the corresponding signal value of the well with only tumor cells as the minimum killing value, and the corresponding value of the well without tumor cells as the maximum killing value. The killing data of MIApaca/FG2 cells is as follows: […]

[2] = Stability experiment of compounds in human liver microsomes; assay type: in vitro ADME; settings: NADPH, 37° C., read-out: T1/2 in human liver microsomes
Description: Compounds were prepared as a 10 mM stock solution with DMSO and then diluted with 80% acetonitrile-water to a 100 μM working solution for later use. Human liver microsomes were obtained from BIOIVT.
(1) The liver microsomes taken out from the refrigerator were placed in a 37° C. water bath thermostatic oscillator, pre-incubated for 5 min, and thawed for later use.
(2) A certain amount of NADPH was weighed and added to an appropriate amount of magnesium chloride solution to dissolve into a 2 mM solution for later use.
(3) A mixed solution of the warm incubation system (containing no β-NADPH) was prepared according to the proportions in the “composition of the experimental warm incubation system” above and dispensed at 165 μL/tubes (45 μL/tube for the negative control group and 120 μL/tube for the positive control group).
(4) For the sample at 0 min: 200 μL of internal standard working precipitant was added and then 30 μL of NADPH solution was added.
(5) For other samples: 135 μL NADPH solution was added to initiate the reaction (45 μL magnesium chloride solution was added for the negative control group), and incubated in a 37° C. water bath for 5, 15, 30, and 60 min (incubated in a 37° C. water bath for 60 min for the negative control group), then 60 μL was sampled and added to 200 µL of precipitant containing internal standard.
(6) For the positive control group: 90 L NADPH solution was added to initiate the reaction, and incubated in a 37° C. water bath for 5, 15 min, then 60 μL was sampled and added to 200 μL of precipitant containing internal standard.
(7) For neat sample: 297 μL of water was pipetted into a tube, 1000 μL of internal standard working solution was added, and 3 μL of test compound working solution was added.
(8) All samples were vortexed and centrifuged.
(9) 150 μL of the supernatant was sampled and added to 150 μL of water, mixed uniformly by vortex, and analyzed by LC-MS/MS. The half-life stability data of human liver microsomes is as follows: […]

[3] = Binding rate test of compounds and human plasma protein (equilibrium dialysis); assay type: in vitro ADME; settings: human plasma, equilibrium dialysis 6 hours, 37° C.
Description: (1) The dry dialysis membrane was soaked with ultrapure water for 20 min or more than 20 min, then soaked with 20% ethanol for 30 min to 1 h, and the membrane was rinsed with ultrapure water 2-3 times. Finally, the membrane was soaked with ultrapure water for 20 minutes for later use.
(2) The frozen plasma was thawed in a water bath at 37° C.
(3) The test compound was diluted into plasma preheated to 37° C. at a final concentration of 1 μM, and the final concentration of the control compound warfarin in plasma was 2 μM.
(4) The pre-treated dialysis membrane was assembled into the dialysis plate according to the specification of the product, and 120 μL of the receiving solution (100 mM phosphate buffer solution added 0.002% Tween 80) was added to one side of the permeable membrane in each dialysis well.
(5) 20 μL of each of the final solutions of the test compound and the control compound were added into a 96-well sample plate in duplicate, and the TO sample was obtained, which was stored in a refrigerator at −20° C. Another 20 μL of the above final solution was added to the other side of the membrane in the dialysis device in duplicate, and incubated at 37° C. by shaking at constant temperature for 6 hours.
(6) After 6 hours of incubation, 20 L of each of the dialyzed receiving solution and the administered plasma were weighed to obtain sample B and sample A in duplicate. The corresponding volume of corresponding blank plasma or receiving solution was added to sample B and sample A, respectively, so that the volume ratio of plasma to buffer in each sample well was 1:1. 300 μL of acetonitrile solution containing internal standard was added to all sample wells, and centrifuged after mixed uniformly.
(7) 200 μL of ultrapure water (150 μL for the control group) was added into the corresponding sample wells of the 96-well sample plate, and 300 μL of the supernatant (150 μL for the control group) was added into the sample well; the samples were analyzed after mixed uniformly. The free percentage and recovery rate of the compound in plasma were calculated using the following formula: Plasma protein binding rate (%)=1−free percentage, wherein free percentage (%)=CB/CA
wherein CB is the concentration of the compound in the receiving solution after equilibrium dialysis, CA is the concentration of the compound in the drug-dosed plasma after equilibrium dialysis, and CT0 is the initial concentration of the compound in plasma.

MIApaca/FG2 cells [4] = assay: EC50 assay of small molecule activated γδ T cells to kill MIApaca/FG2 tumor cells (10-fold dilution protocol); assay type: cell-based
Description: γδT cells and MIApaca/FG2 tumor cell lines were expanded and cultured in vitro. The MIApaca/FG2 cells were digested, and the cells were counted and resuspended in DMEM complete medium, the density of the cell suspension was adjusted and added into a 96-well plate at 5×10^3 cells/50 μL/well for overnight incubation. On the next day, the test compound and the control compound were diluted at a 10-fold ratio with γδT complete medium. 50 μL of diluted compound was transferred to the corresponding wells which had been plated with tumor cells, and the actual detection concentration was in the range of 10^−12-10^−5 M. γδT cells were resuspended in γδT complete medium, and the density of the cell suspension was adjusted according to the effector-target ratio of E:T=2:1, and then the cells were added to the corresponding wells at 1×10^4 cells/50 μL/well. After co-culture at 37° C., 5% CO2 for 20 hours, the cells were centrifuged. The supernatant was removed, and 50 μL of cell lysate containing luciferin substrate was added to each well. After standing for 18 minutes in the dark, the signal of chemiluminescence was detected. The EC50 value was calculated by four-parameter fitting, with the corresponding signal value of the well with only tumor cells as the minimum killing value, and the corresponding signal value of the well without tumor cells as the maximum killing value. The killing data of MIApaca/FG2 cells is as follows: […]

[5] = read-out: MIApaca killing (EC50), γδT cells + MIApaca/FG2, E:T=2:1, co-culture 20 hours, 10^-12-10^-5 M

In the case of `C/C(=C\CC[P@@](=O)(N[C@@H](C)C(=O)O[C@@H]1CCOC1)Oc1ccccc1)CO` (single isomer, unassigned) [Compound 18], the EC50 (MIApaca/FG2 cells [1]) is reported as 0.2 nM, the half-life [2] is reported as 20.9 min and the fraction unbound at 6 h, 1 μM [3] is reported as 0.178.

`CC(C)OC(=O)[C@H](C)NP(=O)(CCC=C(CO)CO)Oc1ccccc1` (stereo partly drawn) [Compound 1, Isopropyl ((5-hydroxy-4-(hydroxymethyl)pent-3-en-1-yl)(phenoxy)phosphoryl)-L-alaninate] gave an EC50 (MIApaca/FG2 cells [4]; [5]) of 57.1 nM.

Work on `CCC(CC)COC(=O)[C@H](C)NP(=O)(CC/C=C(\C)CO)Oc1ccccc1` (stereo partly drawn) [Compound 2, 2-Ethylbutyl (((E)-5-hydroxy-4-methylpent-3-en-1-yl)(phenoxy)phosphoryl)-L-alaninate] yielded an EC50 (MIApaca/FG2 cells [4]; [5]) of 0.19 nM.

`CC(C)OC(=O)[C@H](C)NP(=O)(OC/C=C(/CO)C(F)(F)F)Oc1ccccc1` (stereo partly drawn) [Compound 3, Isopropyl ((phenoxy)(((Z)-4,4,4-trifluoro-3-(hydroxymethyl)but-2-en-1-yl)oxy)phosphoryl)-L-alaninate] showed an EC50 (MIApaca/FG2 cells [4]; Homo sapiens, MIA PaCa-2, γδT cells + MIApaca/FG2, E:T=2:1, co-culture 20 hours, 10^-12-10^-5 M, read-out: MIApaca killing (EC50)) of 8 nM.

In the case of `CC/C(=C\CCP(=O)(N[C@@H](C)C(=O)OC(C)C)Oc1ccccc1)CO` (stereo partly drawn) [Compound 4, Isopropyl (((E)-5-hydroxy-4-ethylpent-3-en-1-yl)(phenoxy)phosphoryl)-L-alaninate], the EC50 (MIApaca/FG2 cells [4]; [5]) is reported as 174 nM.

Work on `CC(C)OC(=O)[C@H](C)NP(=O)(CC/C=C/CO)Oc1ccccc1` (stereo partly drawn) [Compound 5, Isopropyl (((E)-5-hydroxypent-3-en-1-yl)(phenoxy)phosphoryl)-L-alaninate] yielded an EC50 (MIApaca/FG2 cells [4]; [5]) of 11.6 nM.

Work on `C/C(=C\CCP(=O)(N[C@@H](C)C(=O)OC1CCCC1)Oc1ccccc1)CO` (stereo partly drawn) [Compound 6, Cyclopentyl (((E)-5-hydroxy-4-methylpent-3-en-1-yl)(phenoxy)phosphoryl)-L-alaninate] yielded an EC50 (MIApaca/FG2 cells [4]; [5]) of 0.098 nM.

`C/C(=C\CCP(=O)(N[C@@H](C)C(=O)O[C@@H]1CCOC1)Oc1ccccc1)CO` (stereo partly drawn) [Compound 7, (R)-Tetrahydrofuran-3-yl (((E)-5-hydroxy-4-methylpent-3-en-1-yl)(phenoxy)phosphoryl)-L-alaninate] gave a half-life [2] of 21.6 min and a fraction unbound at 6 h, 1 μM [3] of 0.222.

Compound `C/C(=C\CCP(=O)(N[C@@H](C)C(=O)O[C@H]1CCOC1)Oc1ccccc1)CO` (stereo partly drawn) [Compound 8, (S)-tetrahydrofuran-3-yl (((E)-5-hydroxy-4-methylpent-3-en-1-yl)(phenoxy)phosphoryl)-L-alaninate] has a half-life [2] of 27.3 min and a fraction unbound at 6 h, 1 μM [3] of 0.168.

For `C/C(=C\CCP(=O)(N[C@@H](C)C(=O)OC1CCOCC1)Oc1ccccc1)CO` (stereo partly shown) [Compound 20], the EC50 (MIApaca/FG2 cells [1]) was 0.48 nM, the half-life [2] was 24 min and the fraction unbound at 6 h, 1 μM [3] was 0.227.

With `C[C@H](NP(=O)(CC/C=C(/CO)C(F)(F)F)Oc1ccccc1)C(=O)O[C@@H]1CCOC1` (stereo partly drawn) [Compound 27, (R)-tetrahydrofuran-3-yl (phenoxy((Z)-5,5,5-trifluoro-4-(hydroxymethyl)pent-3-en-1-yl)phosphoryl)-L-alaninate] the EC50 (MIApaca/FG2 cells [1]) was 0.23 nM, the half-life [2] was 10.5 min and the fraction unbound at 6 h, 1 μM [3] was 0.193.

`C/C(=C\CCP(=O)(N[C@@H](C)C(=O)OC1CC2(COC2)C1)Oc1ccccc1)CO` (stereo partly drawn) [Compound 30, 2-Oxaspiro[3.3]heptan-6-yl (((E)-5-hydroxy-4-methylpent-3-en-1-yl)(phenoxy)phosphoryl)-L-alaninate] showed an EC50 (MIApaca/FG2 cells [1]) of 0.11 nM, a half-life [2] of 24.4 min and a fraction unbound at 6 h, 1 μM [3] of 0.359.

With `C/C(=C\CCP(=O)(N[C@@H](C)C(=O)OC1CCN(CC(F)(F)F)CC1)Oc1ccccc1)CO` (stereo partly shown) [Compound 31] the EC50 (MIApaca/FG2 cells [1]) was 0.13 nM, the half-life [2] was 3.91 min and the fraction unbound at 6 h, 1 μM [3] was 0.129.

For `C/C(=C\CCP(=O)(N[C@@H](C)C(=O)O[C@H]1CO[C@H]2OCC[C@H]21)Oc1ccccc1)CO` (stereo partly drawn) [Compound 32, (3R,3aS,6aR)-hexahydrofuran[2,3-b]furan-3-yl (((E)-5-hydroxy-4-methylpent-3-en-1-yl)(phenoxy)phosphoryl)-L-alaninate], the EC50 (MIApaca/FG2 cells [1]) was 0.21 nM, the half-life [2] was 11.4 min and the fraction unbound at 6 h, 1 μM [3] was 0.214.

Compound `C/C(=C\CCP(=O)(N[C@@H](C)C(=O)O[C@@H]1CCO[C@H](C)C1)Oc1ccccc1)CO` (stereo partly shown) [Compound 33] has an EC50 (MIApaca/FG2 cells [1]) of 0.65 nM, a half-life [2] of 19.9 min and a fraction unbound at 6 h, 1 μM [3] of 0.192.

In the case of `C/C(=C\CCP(=O)(N[C@@H](C)C(=O)O[C@@H]1CCNC(=O)C1)Oc1ccccc1)CO` (stereo partly drawn) [Compound 35, (R)-2-piperidone-4-yl (((E)-5-hydroxy-4-methylpent-3-en-1-yl)(phenoxy)phosphoryl)-L-alaninate], the EC50 (MIApaca/FG2 cells [1]) is reported as 2.15 nM, the half-life [2] is reported as 82.5 min and the fraction unbound at 6 h, 1 μM [3] is reported as 0.429.

For `C/C(=C\CCP(=O)(N[C@@H](C)C(=O)OC1(C#N)CCCC1)Oc1ccccc1)CO` (stereo partly drawn) [Compound 36, 1-Cyanocyclopentyl (((E)-5-hydroxy-4-methylpent-3-en-1-yl)(phenoxy)phosphoryl)-L-alaninate], the EC50 (MIApaca/FG2 cells [1]) was < 0.05 nM, the half-life [2] was 3.08 min and the fraction unbound at 6 h, 1 μM [3] was 0.038.

With `C/C(=C\CC(F)(F)P(=O)(N[C@@H](C)C(=O)O[C@@H]1CCOC1)Oc1ccccc1)CO` (stereo partly drawn) [Compound 37, (R)-tetrahydrofuran-3-yl (((E)-1,1-difluoro-5-hydroxy-4-methylpent-3-en-1-yl)(phenoxy)phosphoryl)-L-alaninate] the EC50 (MIApaca/FG2 cells [1]) was 0.2 nM, the half-life [2] was 8.11 min and the fraction unbound at 6 h, 1 μM [3] was 0.098.
